From publication PMC4490465 (2015) come the findings set out here.

Assay [1] relates to Cognate DNA sequence (DNA, hairpin) CGCATATGGTATGTGCCGCGGAAAAACCGCGGCACATACCATATGCG
As to the kind of experiment: SPR, steady state, 1:1 fit. The conditions noted are these: HBS-EP + 0.1% DMSO, pH 7.4, 25 °C. In general terms: Surface plasmon resonance follows binding to a sensor surface in real time, without labels.

Assay [2] concerns 3 bp mismatch (DNA, hairpin) CAGTCATGAGCATGGATGCGGAAAAACCGCATCCATGCTCATGACTG
As to the kind of experiment: SPR, steady state, 1:1 fit. The conditions noted are these: HBS-EP + 0.1% DMSO, pH 7.4, 25 °C.

As for `CN(C)CCCNC(=O)CCNC(=O)c1cc(NC(=O)c2cc(NC(=O)c3cc(NC(=O)c4cc(NC(=O)CCCNC(=O)c5cc(NC(=O)c6cc(NC(=O)c7nc(NC(=O)c8nc(NC(=O)CCOCCOCCOCCNC(=O)[C@@H](N)CSSC(C)(C)C)cn8C)cn7C)cn6C)cn5C)cn4C)cn3C)cn2C)cn1C`, the Kd in assay [1] (apparent) came to 9.3 ± 1.6 nM.
Regarding `CC(=O)Nc1cn(C)c(C(=O)Nc2cn(C)c(C(=O)Nc3cc(C(=O)Nc4cc(C(=O)NCCCC(=O)Nc5cc(C(=O)Nc6cc(C(=O)Nc7cc(C(=O)Nc8cc(C(=O)NCCC(=O)NCCCN(C)C)n(C)c8)n(C)c7)n(C)c6)n(C)c5)n(C)c4)n(C)c3)n2)n1`, the Kd in assay [1] is recorded as 1.6 ± 0.1 nM; in assay [2], 314 ± 160 nM.
